Test results from patent publication US20120165206A1, “Method and Assay for Glycosylation Pattern Detection Related to Cell State” (priority 2006, published 2012).

Legend:
PC12 cells = test: Lectin array glycoanalysis (Qproteome Glycoprofiling Kit) of membrane proteins of PC12 cells treated with BFA; assay type: cell-based; conditions: 12 ug/ml BFA, 24 h
Description: (§1) Lectins with differing, well-characterized glycan-binding specificities are spotted on the surface of an array. The array is probed with a biotinylated membrane glycoprotein mixture and washed to reduce background. Bound biotinylated glycoproteins are visualized with Cy®3-labeled streptavidin using a microarray scanner. Following scanning, the resulting images are analyzed using Qiagen GlycoAnalyzer Software.
(§2) Each lectin is printed on the slides at seven concentrations. The analysis provides a lectin fingerprint for each sample: a histogram in which each bar represents the slope of the dose-response curve observed for each lectin. […] All fingerprints in an experiment are preferably normalized to the fingerprint of the reference sample. Microarray technologies generally require normalization between slides to adjust for variations that arise from technology, rather than from biological differences. The normalization in Qproteome Glycoprofiling Kits is preferably based on a robust-regression algorithm (using MM-estimators; please see Example 9 for a description).
Materials and Methods: PC12 cells were treated with 12 ug/ml BFA for 24 h. […] Cells were then harvested and analyzed with the Qproteome Glycoprofiling Kit (Qiagen USA; the assay was performed as described in the kit manual according to manufacturer's instructions).

3T3L1 cells = test: Lectin array glycoanalysis (Qproteome Glycoprofiling Kit) of membrane proteins of 3T3L1 cells treated with DMJ; assay type: cell-based, mouse; conditions: pre-confluent 3T3L1 cells, 800 ug/ml DMJ, 3 days, FIG. 4
Description: as §1, §2
Materials and Methods: Pre-confluent 3T3L1 cells were incubated for 3 days in the presence or absence of 800 ug/ml DMJ. Cells were then harvested and analyzed with the Qproteome Glycoprofiling Kit (Qiagen USA; the assay was performed as described in the kit manual according to manufacturer's instructions).

| Compound | cell morphology / attachment (PC12 cells) | antennarity of the membrane glycoproteins (lectin that binds N-linked complex antennary structures) (PC12 cells; FIG. 3) | signals from lectins recognizing terminal sugars such as alpha-galactose, beta-galactose, sialic acid and fucose (PC12 cells; FIG. 3) | antennarity (lectins that bind N-linked complex antennary structures) (3T3L1 cells; vs non-treated cells) | signals from all oligomannose binding lectins (high mannose glycans) (3T3L1 cells; vs non-treated cells) | sugars found on antennae termini such as beta galactose and sialic acid (3T3L1 cells) |
| --- | --- | --- | --- | --- | --- | --- |
| C[C@H]1CCC/C=C/[C@@H]2C[C@H](O)C[C@H]2[C@H](O)/C=C/C(=O)O1 [BFA, Brefeldin A] | morphological changes were observed and cells were detached | significant decrease | Decreases |  |  |  |
| OC[C@H]1NC[C@@H](O)[C@@H](O)[C@@H]1O [DMJ, 1-deoxymannojirimycin] |  |  |  | strongly reduced | significantly increased | decrease |
